Results from EP4755892A1, “KINESIN KIF18A INHIBITOR AND USE THEREOF” (Shanghai Apeiron Therapeutics Company Limited, priority 2023, dated 2025).
Read-outs that look alike come from different tables or passages of the source.

Experiments:
HT29 cells = experiment: CyQuant Cell Proliferation Activity Test, HT29; type: cell-based; conditions: HT29 cells 2000 per well, initial concentration 3000 nM, 3-fold dilution, 3 days, 0.2% DMSO, read-out: HT29_IC50 _nM
Experimental: Assay 3: CyQuant Cell Proliferation Activity Test
Materials and Cells: HT29 cells were purchased from Nanjing Cobioer Biosciences Co., Ltd.; RPMI-1640 medium, fetal bovine serum, Trypsin-EDTA (0.25%), 96-well plates, and CyQuant reagents were purchased from ThermoFisher (USA); DMSO was purchased from SIGMA (USA).
Cell Culture: HT29 cells were cultured with RPMI-1640 containing 10% fetal bovine serum under the condition of 37°C and 5% CO2. Only cells in the logarithmic growth phase could be used for the test.
Cell Proliferation Activity Test: CyQuant reagent was used to detect the proliferation inhibitory activity of compounds on HT29 cells. The cell density was adjusted, and 100 µL per well was inoculated into a 96-well plate (HT29 at 2000 cells per well), then incubated overnight at 37°C and 5% CO2. Add compounds of various target concentrations (initial concentration of 3000 nM, 3-fold dilution, 9 concentration gradients), and make the DMSO content 0.2%. The cell plate was incubated at 37°C in 5% CO2 for 3 days. CyQuant reagent was added and incubated for 1 h. The plates were read by Envision, and IC50 was calculated using XLFIT.

[1] = target: T1, Human KIF18A (amino acid sequence 1-417) (Homo sapiens, UniProt Q8NI77); experiment: Enzymatic Activity Test (ADP-Glo, microtubule-stimulated KIF18A ATPase); type: biochemical; conditions: 60 µg/mL microtubules, 25 µM ATP, 2.5 nM KIF18A protein, 120 min at ambient temperature, chemiluminescence; read-out: KIF 18A IC50
T1 construct: purchased Viva Biotech (Shanghai) Ltd
T1 sequence (Q8NI77 1-417): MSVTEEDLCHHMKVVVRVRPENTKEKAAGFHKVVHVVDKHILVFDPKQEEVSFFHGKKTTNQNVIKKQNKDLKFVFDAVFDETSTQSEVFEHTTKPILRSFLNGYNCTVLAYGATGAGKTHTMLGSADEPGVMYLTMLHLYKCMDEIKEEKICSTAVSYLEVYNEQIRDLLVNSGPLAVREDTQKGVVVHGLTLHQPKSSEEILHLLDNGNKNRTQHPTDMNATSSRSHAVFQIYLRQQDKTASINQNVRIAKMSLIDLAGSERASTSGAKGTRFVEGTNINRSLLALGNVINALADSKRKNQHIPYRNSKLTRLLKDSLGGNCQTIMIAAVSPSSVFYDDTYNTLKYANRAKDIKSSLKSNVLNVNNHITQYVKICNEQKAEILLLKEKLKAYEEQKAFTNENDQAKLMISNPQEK
Experimental: Assay 1: Enzymatic Activity Test
Materials: Human KIF18A (amino acid sequence 1-417) was purchased from Viva Biotech (Shanghai) Ltd.; the ADP-Glo™ protein kinase kit was acquired from Promega, USA; tubulin was sourced from Cytoskeleton, USA; and the 384-well assay plate and Envision multifunctional microplate reader were obtained from PerkinElmer, USA.
Enzymatic Activity Test: The compound powder was dissolved in DMSO to prepare a stock solution of 10 mM. Then gradient dilution was performed for the compounds in the microplate to achieve a final concentration of 0-10 µM. Then, 2.5 µL each of tubulin, compound, ATP, and KIF18A protein were added to the microplate in sequence for reaction at ambient temperature for 120 min. The final concentrations in the enzyme reaction were 60 µg/mL for microtubules, 25 µM for ATP, and 2.5 nM for KIF18A protein. After the enzyme reaction, 10 µL of ADP-GLO reaction reagent was added to each well and incubated at room temperature for 30 min. After that, 20 µL of detection reagent was added to each well and incubated at room temperature for 30 min in the dark. Finally, chemiluminescence detection was performed using the PerkinElmer Envision.

OVCAR3 cells = experiment: Cell Proliferation Activity Test (CyQUANT Direct), OVCAR3; type: cell-based; conditions: compound 0-10 µM, 3 days, 0.2% DMSO, CyQUANT fluorescence, read-out: OVCAR-3 _IC50_nM
Experimental: Assay 2: Cell Proliferation Activity Test
Materials and Cells: OVCAR3 cells were purchased from Nanjing Cobioer Biosciences Co., Ltd. RPMI-1640 medium, fetal bovine serum, and the CyQUANT Direct Cell Proliferation Assay kit were purchased from Thermo Fisher Scientific, USA; 96-well cell culture plates were sourced from Coming, USA.
Cell Culture: OVCAR3 cells were cultured with RPMI-1640 medium containing 10% fetal bovine serum and incubated in a 5% CO2 incubator at 37°C. Only cells in the logarithmic growth phase could be used for the test.
Cell Proliferation Activity Test:
OVCAR3 cells were inoculated into a 96-well cell culture plate at 90 µL per well and incubated overnight in a 5% CO2 incubator at 37°C. The compound powder was dissolved in DMSO to prepare a stock solution of 10 mM. Then gradient dilution was performed for the compounds in the microplate to achieve a final concentration of 0-10 µM. 10 µL of cell culture medium containing compounds was added to each well to make the final DMSO content 0.2%. The cell plates were incubated in a 5% CO2 incubator at 37°C for 3 days. 100 µL of CyQUANT detection reagent was added to each well, reacted at 37°C for 60 min, and fluorescence detection was performed using the PerkinElmer Envision.

| Compound | IC50 (HT29 cells) [nM] | IC50 [1] [nM] | IC50 (OVCAR3 cells) [nM] | IC50 (HT29 cells; Homo sapiens, HT-29, 72 h) [nM] | IC50 (OVCAR3 cells; Homo sapiens, OVCAR-3, 72 h) [nM] |
| --- | --- | --- | --- | --- | --- |
| Cc1cc2nc(n1)N1CCCC(C=CCC3CCN(CC3)c3cc(NS(=O)(=O)CCO)ccc3C(=O)N2)C1 (stereo not shown) [Example 1, 2-Hydroxy-N-(2^6-methyl-4-oxo-3-aza-2(2,4)-pyrimidin-1(1,3),6(1,4)-dipiperidin-5 (1,2)-benzeneheterocyclonon-8-en-5^4-yl)ethane-1-sulfonamide] | 17 | 62 | 14 |  |  |
| Cc1cc2nc(n1)N1CCCC(C=CCC3CCN(CC3)c3cc(NS(=O)(=O)CCO)ccc3C(=O)N2)C1 (stereo not shown) [Example 1A, 2-Hydroxy-N-((1^3S,E)-2^6-methyl-4-oxo-3-aza-2(2,4)-pyrimidin-1(1,3),6(1,4)-dipiperidin-5(1,2)-benzoaza-8-en-5^4-yl)ethane-1-sulfonamide] | > 3000 | > 3000 | > 3000 |  |  |
| Cc1cc2nc(n1)N1CCCC(C=CCC3CCN(CC3)c3cc(NS(=O)(=O)CCO)ccc3C(=O)N2)C1 (stereo not shown) [Example 1B, 2-Hydroxy-N-((1^3R,E)-2^6-methyl-4-oxo-3-aza-2(2,4)-pyrimidin-1(1,3),6(1,4)-dipiperidin-5(1,2)-benzoaza-8-en-5^4-yl)ethane-1-sulfonamide] | 7 | 34 | 6 |  |  |
| Cc1cc2nc(n1)N1CCCC(C=CCC3CCN(CC3)c3cc(NS(=O)(=O)CCO)ccc3C(=O)N2)C1 (stereo not shown) [Example 1C, 2-Hydroxy-N-((1^3S,Z)-2^6-methyl-4-oxo-3-aza-2(2,4)-pyrimidin-1(1,3),6(1,4)-dipiperidin-5(1,2)-benzoaza-8-en-5^4-yl)ethane-1-sulfonamide] | 78 | 36 | 61 |  |  |
| Cc1cc2nc(n1)N1CCCC(C=CCC3CCN(CC3)c3cc(NS(=O)(=O)CCO)ccc3C(=O)N2)C1 (stereo not shown) [Example 1D, 2-Hydroxy-N-((1^3R,Z)-2^6-methyl-4-oxo-3-aza-2(2,4)-pyrimidin-1(1,3),6(1,4)-dipiperidin-5(1,2)-benzoaza-8-en-5^4-yl)ethane-1-sulfonamide] | 746 | 246 | 506 |  |  |
| Cc1cc2nc(n1)N1CCCC(C=CCC3CCN(CC3)c3cc(NS(=O)(=O)CCO)cnc3C(=O)N2)C1 (stereo not shown) [Example 2, (Z)-2-Hydroxy-N-(2^6-methyl-4-oxo-3-aza-2(2,4)-pyrimidin-5(2,3)-pyridin-1(1,3),6 (1,4)-dipiperidinylcyclononane-8-en-55-yl)ethane-1-sulfonamide] |  | 8 |  | 178 | 74 |
| Cc1cc2nc(n1)N1CCCC(CCCC3CCN(CC3)c3cc(NS(=O)(=O)CCO)ccc3C(=O)N2)C1 (stereo not shown) [Example 3, 2-Hydroxy-N-(2^6-methyl-4-oxo-3-aza-2(2,4)-pyrimidin-1(1,3),6(1,4)-dipiperidin-5 (1,2)-benzeneheterocyclononane-5^4-yl)ethane-1-sulfonamide] | 68 | 98 | 76 |  |  |
| Cc1cc2nc(n1)N1CCCC(CCCC3CCN(CC3)c3cc(NS(=O)(=O)CCO)ccc3C(=O)N2)C1 (stereo not shown) [Example 3A, 2-Hydroxy-N-((1^3R)-2^6-methyl-4-oxo-3-aza-2(2,4)-pyrimidin-1(1,3),6(1,4)-dipiperidin-5(1,2)-benzeneheterocyclononane-5^4-yl)ethane-1-sulfonamide] | 1320 | 26 | 1610 |  |  |
| Cc1cc2nc(n1)N1CCCC(CCCC3CCN(CC3)c3cc(NS(=O)(=O)CCO)ccc3C(=O)N2)C1 (stereo not shown) [Example 3B, 2-Hydroxy-N-((1^3S)-2^6-methyl-4-oxo-3-aza-2(2,4)-pyrimidin-1(1,3),6(1,4)-dipiperidin-5(1,2)-benzeneheterocyclononane-5^4-yl)ethane-1-sulfonamide] | 43 | 67 | 36 |  |  |
| Cc1cc2nc(n1)N1CCCC(C=CC3CCCN(C3)c3cc(NS(=O)(=O)CCO)ccc3C(=O)N2)C1 (stereo not shown) [Example 8, (Z)-2-hydroxy-N-(1^6-methyl-7-oxo-8-aza-1(2,4)-pyrimidin-2(1,3),5(3,1)-dipiperidin-6(1,2)-benzeneheterocyclooct-3-en-6^5-yl)ethane-1-sulfonamide] |  | 2300 |  |  | > 3000 |
| Cc1cc2nc(n1)N1CCCC(CCC3CCCN(C3)c3cc(NS(=O)(=O)CCO)ccc3C(=O)N2)C1 (stereo not shown) [Example 9, 2-Hydroxy-N-(1^6-methyl-7-oxo-8-aza-1(2,4)-pyrimidin-2(1,3),5(3,1)-dipiperidin-6 (1,2)-benzeneheterocyclooctan-6^5-yl)ethane-1-sulfonamide] |  | 293 |  |  | 548 |
| Cc1cc2nc(n1)N1CCCC(CCCC3CCCN(C3)c3cc(NS(=O)(=O)CCO)ccc3C(=O)N2)C1 (stereo not shown) [Example 11, 2-Hydroxy-N-(2^6-methyl-4-oxo-3-aza-2(2,4)-pyrimidin-1,6(1,3)-dipiperidin-5(1,2) -benzoylcyclononyl-5^4-yl)ethane-1-sulfonamide] |  | 233 |  |  | 150 |
| Cc1cc2nc(n1)N1CCOC(CCCC3CCN(CC3)c3cc(NS(=O)(=O)CCO)ccc3C(=O)N2)C1 (stereo not shown) [Example 26, 2-Hydroxy-N-((1^2S)-2^6-methyl-4-oxo-3-aza-1(4,2)-morpholin-2(2,4)-pyrimidin-6(1,4)-piperidin-5(1,2)-benzeneheterocyclononane-5^4-yl)ethane-1-sulfonamide] |  | 15 |  |  |  |
| Cc1cc2nc(n1)N1CCCC(COCC3CCN(CC3)c3cc(NS(=O)(=O)CCO)ccc3C(=O)N2)C1 (stereo not shown) [Example 28A, 2-Hydroxy-N-((1^3R)-2^6-methyl-4-oxo-8-oxa-3-aza-2(2,4)-pyrimidin-1(1,3),6(1,4)-dipiperidin-5(1,2)-benzeneheterocyclononane-5^4-yl)ethane-1-sulfonamide] |  | 178 |  |  |  |
| Cc1cc2nc(n1)N1CCCC(COCC3CCN(CC3)c3cc(NS(=O)(=O)CCO)ccc3C(=O)N2)C1 (stereo not shown) [Example 28B, 2-Hydroxy-N-((1^3S)-2^6-methyl-4-oxo-8-oxa-3-aza-2(2,4)-pyrimidin-1(1,3),6(1,4)-dipiperidin-5(1,2)-benzeneheterocyclononane-5^4-yl)ethane-1-sulfonamide] |  | 743 |  |  |  |
| Cc1cc2nc(n1)OCCOCCC1CCN(CC1)c1cc(NS(=O)(=O)CCO)ccc1C(=O)N2 [Example 29, 2-Hydroxy-N-(5^6-methyl-3-oxo-6,9-dioxa-4-aza-5(4,2)-pyrimidin-1(1,4)-piperidin-2(1,2)-benzeneheterocycloundecane-2^5)ethane-1-sulfonamide] |  | 141 |  |  |  |
